The source of these data is BindingDB's records for doi:10.1016/j.bioorg.2014.02.002 (Swami Ramanand Teerth Marathwada University, 2014).

In this assay the target is Aldose reductase (Capra hircus). Description: The reaction mixture contained 1 mL of 1 M potassium phosphate buffer (pH 6.2), 0.4 mM lithium sulfate and 5 µM 2-mercaptoethanol, 10 µM DL-glyceraldehyde, […], and crude enzyme. The reaction mixture was incubated at 37 °C for 10 min. The reaction was initiated by the addition of NADPH and the decrease in absorbance was measured a.

Values joined by “and” are separate entries in the source; they are usually repeats but may differ in a detail not shown here. Equal values may be shown once.

As for `NC1=NNC(=O)C1=Cc1cn(-c2ccccc2)nc1-c1ccc(Cl)cc1` [(4E)‐5‐amino‐4‐{[3‐(4‐chlorophenyl)‐1‐ phenylpyrazol‐4‐yl]methylidene}‐2H‐pyrazol‐3‐one (1e)], the IC50 (in general, the midpoint of a concentration-inhibition curve) turned out to be 9.2 µM.
For `COc1ccc(-c2cc(C=C3C(=O)N(C(N)=S)N=C3N)n(-c3ccccc3)n2)cc1` [(4Z)‐3‐amino‐4‐{[5‐(4‐methoxyphenyl)‐2‐ phenylpyrazol‐3‐yl]methylidene}‐5‐oxopyrazole‐1‐ carbothioamide (2d)], the IC50 was 8.1 µM.
On to `NC(=S)N1C=C(N)C(=Cc2ccc(F)cc2)C1=O` [(3Z)‐4‐amino‐3‐[(4‐methoxyphenyl)methylidene]‐2‐ oxopyrrole‐1‐carbothioamide (2c)], for which the IC50 was 11.9 µM and 12.8 µM.
With `NC(=S)N1N=C(N)C(=Cc2cn(-c3ccccc3)nc2-c2ccc(Cl)cc2)C1=O` [(4E)‐3‐amino‐4‐{[3‐(4‐chlorophenyl)‐1‐ phenylpyrazol‐4‐yl]methylidene}‐5‐oxopyrazole‐1‐ carbothioamide (2e)] the figure was 6.3 µM.
